Results reported in PubChem BioAssay (NCI).
Values joined by “and” are separate entries in the source; they are usually repeats but may differ in a detail not shown here. Equal values may be shown once.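 Cultured in 96-well plates, cells were exposed to test compound for 48 hours across five concentrations. At the GI50, growth is halved. Definition used: TGI = concentration required for complete inhibition of growth.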

Experiments:
Test in all cases: NCI-60 cell line screen, 48 h
[1] = test system: TK-10 renal
[2] = test system: SK-MEL-2 melanoma
[3] = test system: U251 CNS
[4] = test system: HCT-116 colon
[5] = test system: HOP-92 NSCLC
[6] = test system: T-47D breast
[7] = test system: MDA-MB-231 breast
[8] = test system: COLO 205 colon

Structure (SMILES) | GI50 [1] | TGI [1] | GI50 [2] | TGI [2] | GI50 [3] | TGI [3] | GI50 [4] | TGI [4] | GI50 [5] | TGI [5] | GI50 [6] | TGI [6] | GI50 [7] | TGI [7] | GI50 [8] | TGI [8]
Oc1ccc2oc3ncc(Cl)c(-c4ccccc4)c3c2c1 | > 100 µM | > 100 µM | > 100 µM | > 100 µM | > 100 µM | > 100 µM | > 100 µM | > 100 µM | > 100 µM | > 100 µM | > 100 µM | > 100 µM | > 100 µM | > 100 µM | > 100 µM | > 100 µM
Cc1ccc(Cl)cc1Nc1nc(C(F)(F)F)ccc1C(=O)Nc1cccc(C(F)(F)F)c1 | 5.58 µM | 17.8 µM | 2.45 µM | 6.58 µM | 3.68 µM | 14.5 µM | 2.39 µM | 10.3 µM | 2.2 µM | 8.69 µM | 2.23 µM | 8.95 µM | 2.29 µM | 9.63 µM | 1.72 µM | 3.36 µM
C=C(CN1CCN(c2ccccc2OC)CC1)c1ccc(C(=O)Nc2ccccc2N)cc1 | 1.2 µM | 9.07 µM | 12.6 µM | 37.9 µM | 1.7 µM | 11.1 µM | 6.02 µM | 18.3 µM | 5.73 µM | 44.5 µM | 10.8 µM | 45.2 µM | 0.315 µM | 4.4 µM | 8.31 µM | 37.2 µM
CCSc1oc(-c2ccccc2)nc1[P+](c1ccccc1)(c1ccccc1)c1ccccc1 | 0.258 µM | 2.66 µM | 0.276 µM | 0.866 µM | 0.163 µM | 4.61 µM | 0.218 µM | 3.42 µM | 0.15 µM | 0.551 µM | 0.0686 µM | 1.15 µM | 0.266 µM | 1.08 µM | 0.186 µM | 0.42 µM
CCOC1OCCCC1Br (stereo unspecified) | – | > 100 µM | – | > 100 µM | – | – | – | > 100 µM | – | > 100 µM | – | > 100 µM | – | > 100 µM | – | > 100 µM
COc1ccc(-c2oc(=O)ccc2C#Cc2cc(OC)c(OC)c(OC)c2)cc1O | 83.9 µM | > 100 µM | 28 µM | > 100 µM | 13.5 µM | 50.6 µM | 18.6 µM | > 100 µM | 5.47 µM | 31.2 µM | 30.7 µM | > 100 µM | 11.6 µM | > 100 µM | 89.5 µM | > 100 µM
Nc1[nH]c(=O)ncc1F | – | > 100 µM | – | > 100 µM | – | > 100 µM | – | > 100 µM | – | > 100 µM | – | > 100 µM | – | – | – | > 100 µM
O=C(O)c1c(O)c2cc(Br)ccc2oc1=O | – | > 100 µM | – | > 100 µM | – | > 100 µM | – | > 100 µM | – | > 100 µM | – | > 100 µM | – | > 100 µM | – | > 100 µM
CCN(CC)CCN1C(=O)c2c(c(C)c3c(oc4cc(O)ccc43)c2C)C1=O | 1.93 µM | 3.62 µM | 2.35 µM | 5.27 µM | – | – | – | – | 1.54 µM | 3.14 µM | 2.28 µM | 6.44 µM | 1.74 µM | 3.36 µM | 2.18 µM | 5.77 µM
CCOC(=O)c1sc(-c2ccc(OS(=O)(=O)c3cccs3)c(C=O)c2)nc1C | 1.27 µM | 4.33 µM | 2.06 µM | 4.78 µM | 1.19 µM | 2.83 µM | 0.732 µM | 2.15 µM | 1.36 µM | 4.24 µM | 1.21 µM | 5.02 µM | – | – | 2.01 µM | 3.9 µM
Cn1nc(C(F)(F)F)c(-c2ccc(Cl)c(C(F)(F)F)c2)c1-c1ccc(OCc2ccc(Cl)cc2)cc1O | 1.91 µM | 7.13 µM | 1.41 µM | 4.52 µM | 1.66 µM | 5.62 µM | 1.5 µM | 5.46 µM | 1.11 µM | 3.02 µM | 1.27 µM | 5.32 µM | 1.59 µM | 5.41 µM | 1.41 µM | 4.45 µM
COc1ccc2c(c1)CCC1C2CC[C@@]2(C)C1CC[C@@]2(O)CNC(=O)/C=C/c1ccc(O)c(OC)c1 (stereo partly specified) | 6.86 µM | > 100 µM | 38.8 µM | > 100 µM | 19 µM | 76.6 µM | 19 µM | > 100 µM | 14.9 µM | 60 µM | 9.12 µM | > 100 µM | – | – | 14 µM | 35.3 µM
CCCS(=O)(=O)Nc1ccc(F)c(C(=O)c2c[nH]c3ncc(-c4ccc(Cl)cc4)cc23)c1F | 5.99 µM and 5.48 µM | 34.6 µM and > 10 µM | 4.11 µM and 3.65 µM | 14.7 µM and > 10 µM | 3.37 µM and 4.02 µM | 15.9 µM and > 10 µM | 4.46 µM and 5.81 µM | 16.9 µM and > 10 µM | 2.63 µM and 4.84 µM | 12.5 µM and > 10 µM | 5.34 µM and 5.13 µM | 24.8 µM and > 10 µM | 3.98 µM and 5.16 µM | 18.9 µM and > 10 µM | 0.0487 µM and 0.0423 µM | 11.2 µM and > 5.32 µM
S=c1nc(-c2ccccc2)oc(=NC2CCCCC2)n1C1CCCCC1 | 4.31 µM | 8.57 µM | 4.51 µM | 17.8 µM | 3.85 µM | 15.2 µM | 4.19 µM | 17.1 µM | – | 0.079 µM | 3.85 µM | 21.4 µM | 3.69 µM | 15.9 µM | 2.11 µM | 4.22 µM
COc1ccc(SC2c3cc(OC)c(OC)cc3Oc3nc(N)c(C#N)c(N)c32)cc1 (stereo unspecified) | 1.63 µM | 3.01 µM | 1.36 µM | 2.8 µM | 0.954 µM | 2.18 µM | 0.68 µM | 2.16 µM | 1.24 µM | 2.72 µM | 1.3 µM | 3.31 µM | 1.43 µM | 2.81 µM | 1.29 µM | 2.65 µM
CC(=O)OCC1OC(OC2C(COC(C)=O)OC(OCCC[S-])C(OC(C)=O)C2OC(C)=O)C(OC(C)=O)C(OC(C)=O)C1OC(C)=O.[Au+].c1ccc(CN2[CH-]N(Cc3ccccc3)C(c3ccccc3)=C2c2ccccc2)cc1 (stereo unspecified) | 3.57 µM | 14.8 µM | 2.99 µM | 8.92 µM | 2.77 µM | 7.47 µM | 2.72 µM | 10.9 µM | 2.37 µM | 6.24 µM | 3.28 µM | 18.5 µM | 2.38 µM | 5.93 µM | 2.68 µM | 7.61 µM
